# Test results: patent US10470987B2, “Process for stimulating hyaluronic acid synthesis” (TOMCAT INTERNATIONAL LIMITED, priority 2015, dated 2019)
# System: has-2 expression
# Experiment: has-2 expression in human skin fibroblasts by real time quantitative PCR, 6 hours incubation
# Type: cell-based
# Settings: 2 μM, vs untreated
# Procedure: Human skin fibroblast cells are spread in DMEM medium containing 10% of fetal bovine serum (FBS) and antibiotics (penicillin/streptomycin) and incubated until a 90% confluence is reached. The medium is removed and replaced by fresh medium comprising resveratrol (RSV) or resveratrol oligomers (OR) respectively. Table 1 below indicates the different conditions tested and concentrations used. [table] Human skin fibroblast cells are incubated for 6 hours at 37° C. under 5% CO2. The ARN extraction is made by using the ARN Omega extraction kit. 1 μg of ARN is used and retranscribed into complementary DNA using the ADNc Bio-Rad iScript™ synthesis kit followed by a real time quantitative PCR quantification. The PCR reactions have been carried out using Fast-Start™ DNA Master SYBR Green I real-time PCR kit (Roche Molecular Biochemicals). Each PCR has been carried out in a final volume of 20 μl containing 10 μl of SYBR Green mix 2× (Fast start DNA master SYBR green+Taq DNA polymerase), 2 μl of 10 μM primer mixture (finally 1 μM) and 8 μl of ADNc solution (50 ng). The primers used are described in table 2 below. [table]
smiles,measurement,value
"Oc1ccc(C=Cc2cc(O)cc(O)c2)cc1 [resveratrol, 3,5,4′-trihydroxystilbene]",increase of has-2 expression by fibroblasts,18%
same,"induction of has-2 expression by fibroblasts, factor",1.18
